From patent US6646003B2, “Method of treating ocular inflammatory and angiogenesis-related disorders of the posterior segment of the eye using an amide derivative of flurbiprofen or ketorolac” (Alcon, Inc., priority 2001, dated 2003)

Tests used:
[1] = in vitro corneal drug permeation (perfusion chamber, HPLC); assay type: in vitro ADME, NZA rabbits; settings: continued drug perfusion of the corneal epithelium, excised rabbit cornea, GBR buffer
Method: Freshly excised corneas were obtained from 6-week old NZA rabbits (1.3-1.5 kg). Corneas were mounted in a modified Lucite perfusion chamber and perfused with glutathione-supplemented bicarbonated Ringer (GBR) buffer as previously described^1. Drug concentrations in GBR buffer were as indicated (FIG. 1), with the corneal epithelial cell layer facing the drug containing donor compartment. The final volume of the donor and receiver side of the perfusion chamber was 7.0 mL. Samples of 0.1 mL were withdrawn from both chambers at the beginning of the experiment and at 20 to 30 minute intervals thereafter through six hours. Samples were mixed with an equal volume of methanol and immediately subjected to HPLC analysis. HPLC analysis was carried out on a 25 cm×4.6 mm I.D. Spherosorb RP-18, 10μ column at a flow rate of 2.0 ml/min. The column effluent was monitored with a flow monitor at a wavelength of 230 nm. Elution of NSAID free acids and amides was accomplished with an eluant mixture composed of methanol:water:phosphoric acid (60/40/1 (v/v/v)) (pH 3.0). The eluant mixture was changed to methanol:water:phosphoric acid (60/40/1 (v/v/v)) (pH 3.0) when suprofen and suprofen amide were subjected to HPLC analysis.

[2] = tested on: paracentesis-induced breakdown of the BAB; test: inhibition of trauma-induced ocular inflammation (rabbit model of paracentesis); assay type: in vivo; settings: for inhibition of paracentesis-induced breakdown of the BAB: single 50 μL topical ocular drop of 0.1% solution/suspension 45 minutes prior to paracentesis, rabbit; for topical ocular in vivo antiinflammatory activity (result in words): 0.1% topical ocular dose, rabbit paracentesis model
Method: Effects of a single prophylactic topical ocular dose of the tested compounds were examined in a rabbit model of paracentesis (Graff, et al., Ocular Immunol. Inflamm., 6:227-238 (1998)). Briefly, a single 50 μL drop of a 0.1% drug solution/suspension was administered topically onto the eye 45 minutes prior to paracentesis and removal of ˜150 μL of aqueous humor. Thirty minutes after execution of paracentesis aqueous humor was removed (˜100 μL) for analysis. Both pre- and post-paracentesis samples were assayed for protein and PGE2 content.

[3] = in vitro metabolism: hydrolytic conversion of NSAID amides to free carboxylic acids; assay type: in vitro ADME, NZA rabbit; settings: rabbit iris/ciliary body, 36° C.; for rate of drug hydrolysis by the ICB: GBR buffer pH 7.6, four to six hours; for hydrolytic bioactivation by the ICB (result in words): GBR buffer pH 7.6
Method: Freshly dissected iris/ciliary body from the NZA rabbit was incubated at 36° C. for a period of four to six hours in 0.5 ml of GBR buffer (pH 7.6) supplemented with amide derivatives of the indicated NSAIDs. Samples of 0.1 ml were removed for HPLC analysis to monitor the hydrolytic conversion of NSAID amides to free carboxylic acids.

| rate of drug hydrolysis by the ICB [3] [nM/min/mg tissue] | hydrolytic bioactivation by the ICB (result in words) [3] | Structure (SMILES) | inhibition of paracentesis-induced breakdown of the BAB [2] [%] | further results |
| --- | --- | --- | --- | --- |
| 0.69 | – | NC(=O)Cc1cccc(C(=O)c2ccccc2)c1N [amide derivative of amfenac] | 64 | permeation coefficient [1]: 7.4 cm/min^−1×10^−5 |
| 0.17 | – | NC(=O)Cc1cccc(C(=O)c2ccc(Br)cc2)c1N [amide derivative of bromfenac] | – | – |
| – | resistant to hydrolytic bioactivation | NC(=O)Cc1ccccc1Nc1c(Cl)cccc1Cl [amide derivative of diclofenac] | – | permeation coefficient [1]: 7.8 cm/min^−1×10^−5; topical ocular in vivo antiinflammatory activity (result in words) [2]: no antiinflammatory effects were detectable |
| 2.42 | – | NC(=O)C1CCn2c(C(=O)c3ccccc3)ccc21 (stereo not drawn) [amide derivative of ketorolac, 5-benzoyl-2,3-dihydro-1H-pyrrolizine-1-carboxamide] | – | – |
| – | resistant to hydrolytic bioactivation | CC(C(N)=O)c1ccc(C(=O)c2cccs2)cc1 (stereo not drawn) [amide derivative of suprofen, α-methyl-4-(2-thienylcarbonyl)-benzeneacetamide] | – | – |
| – | resistant to hydrolytic bioactivation | CN(C)C(=O)Cc1cccc(C(=O)c2ccc(Br)cc2)c1N [dimethyl amide derivative of bromfenac, N,N-dimethyl 2-amino-3-(4-bromobenzoyl)benzeneacetamide] | – | topical ocular in vivo antiinflammatory activity (result in words) [2]: no antiinflammatory effects were detectable |
| – | – | CC(C(=O)O)c1ccc(-c2ccccc2)c(F)c1 (stereo not drawn) [flurbiprofen] | 50 | – |
| 0.16 | – | CNC(=O)Cc1cccc(C(=O)c2ccc(Br)cc2)c1N [monomethyl amide derivative of bromfenac, N-methyl 2-amino-3-(4-bromobenzoyl)benzeneacetamide] | – | – |

| Structure (SMILES) | rate of drug hydrolysis by the ICB [3] [nM/min/mg tissue] | hydrolytic bioactivation by the ICB (result in words) [3] | inhibition of paracentesis-induced breakdown of the BAB [2] [%] | further results |
| --- | --- | --- | --- | --- |
| CC(C(N)=O)c1ccc(-c2ccccc2)c(F)c1 (stereo not drawn) [amide derivative of flurbiprofen, 2-(3-fluoro-4-phenyl)-propionamide] | 0.29 | – | 29 | – |
